Measurements published in patent US8648201B2, “Aminopyridine derivatives for treating tumors and inflammatory diseases” (MERCK PATENT GmbH, priority 2009, dated 2014).

Tests used:
Assay type in all cases: biochemical
Conditions in all cases: enzyme
PDK1 = target: T1, PDK1 (Homo sapiens, UniProt O15530); experiment: Test for the inhibition of PDK1 (flashplate, 33P-ATP)
T1 construct: His6 (N)
T1 sequence (O15530 51-556 limits assumed): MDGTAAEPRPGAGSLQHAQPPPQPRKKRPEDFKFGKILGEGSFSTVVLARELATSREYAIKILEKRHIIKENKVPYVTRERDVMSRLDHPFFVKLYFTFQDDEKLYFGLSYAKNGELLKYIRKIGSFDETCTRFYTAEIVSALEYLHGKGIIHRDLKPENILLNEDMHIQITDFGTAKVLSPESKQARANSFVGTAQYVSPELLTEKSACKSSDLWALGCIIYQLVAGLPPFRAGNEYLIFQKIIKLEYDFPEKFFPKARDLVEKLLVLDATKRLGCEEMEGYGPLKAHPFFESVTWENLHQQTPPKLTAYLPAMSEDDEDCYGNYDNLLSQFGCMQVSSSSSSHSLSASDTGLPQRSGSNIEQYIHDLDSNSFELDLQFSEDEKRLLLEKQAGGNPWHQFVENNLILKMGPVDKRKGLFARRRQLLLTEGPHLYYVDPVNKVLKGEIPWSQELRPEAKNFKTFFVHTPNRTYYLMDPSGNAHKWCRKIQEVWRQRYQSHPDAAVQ
Description: The experimental batches are carried out in a flashplate system with 384 wells/microtitration plate.
In each case, the PDK1 sample His6-PDK1(1-50)(3.4 nM), the PDK1 substrate biotin-bA-bA-[…] (400 nM), 4 μM ATP (with 0.2 μCi of ^33P-ATP/well) and the test substance in 50 μl of conventional experimental solution per well are incubated at 30° C. for 60 min. The test substances are employed in corresponding concentrations (if desired in a dilution series). The control is carried out without test substance. The reaction is stopped using standard methods and washed. The activity of the kinase is measured via the incorporated radioactivity in top count. In order to determine the non-specific kinase reaction (blank value), the experimental batches are carried out in the presence of 100 nM staurosporin.
The radioactivity (decompositions per minute) of the blank value (no use of test substance in the presence of staurosporin) is subtracted from all other radioactivity values. The controls (kinase activity without test substance) are set equal to 100 percent and all other radioactivity values (after subtracting the blank value) are expressed set in relation thereto (for example in % of the control).
IC50 values (50% inhibition) are determined with the aid of statistics programmes, such as, for example, RS1.

IRAK-4 = target: T2, IRAK-4 (Homo sapiens, UniProt Q9NWZ3); experiment: Test for the inhibition of IRAK4 (flashplate, 33P-ATP)
T2 construct: His6 (N); Dr.Jaekel
T2 sequence (Q9NWZ3 1-460): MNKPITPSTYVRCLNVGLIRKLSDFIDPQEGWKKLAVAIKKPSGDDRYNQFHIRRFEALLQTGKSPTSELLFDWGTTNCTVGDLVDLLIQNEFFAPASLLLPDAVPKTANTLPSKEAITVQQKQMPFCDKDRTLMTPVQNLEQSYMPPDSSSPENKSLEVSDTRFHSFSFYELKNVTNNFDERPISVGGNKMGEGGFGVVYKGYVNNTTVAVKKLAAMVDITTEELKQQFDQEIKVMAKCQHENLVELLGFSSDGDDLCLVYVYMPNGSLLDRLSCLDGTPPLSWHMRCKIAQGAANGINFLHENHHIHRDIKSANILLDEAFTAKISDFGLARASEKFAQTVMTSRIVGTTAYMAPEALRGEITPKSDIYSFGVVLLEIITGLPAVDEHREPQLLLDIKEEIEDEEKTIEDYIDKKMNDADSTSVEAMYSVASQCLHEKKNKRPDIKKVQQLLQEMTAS
Description: (§1) The experimental batches are carried out in a flashplate system with 384 wells/microtitre plate. In each case, the IRAK4 sample His6-IRAK4 (7.3 nM), the biotinylated substrate peptide STK substrate 1-biotin (Cisbio Bioassays, France) (300 nM), 10 μM ATP (with 0.25 μCi of ^33P-ATP/well) and the test substance in 50 μl of conventional experimental solution per well are incubated at 22° C. for 180 min. The test substances are employed in corresponding concentrations (if desired in a dilution series). The control is carried out without test substance. The reaction is stopped using standard methods and washed. The activity of the kinase is measured via the incorporated radioactivity in top count. In order to determine the non-specific kinase reaction (blank value), the experimental batches are carried out in the presence of 1 μM staurosporin. The radioactivity (decompositions per minute) of the blank value (no use of test substance in the presence of 1 μM staurosporin) is subtracted from all other radioactivity values. The controls (kinase activity without test substance) are set equal to 100 percent and all other radioactivity values (after subtracting the blank value) are expressed set in relation thereto (for example in % of the control). IC50 values (50% inhibition) are determined with the aid of statistics programs, such as, for example, RS1.

IRAK-1 = target: T3, IRAK-1 (Homo sapiens, UniProt P51617); experiment: Test for the inhibition of IRAK1 (autophosphorylation, flashplate)
T3 construct: His6 (N); Dr.Jaekel Pool B, 232Y08C1.IRK
T3 sequence (P51617 whole entry, species assumed): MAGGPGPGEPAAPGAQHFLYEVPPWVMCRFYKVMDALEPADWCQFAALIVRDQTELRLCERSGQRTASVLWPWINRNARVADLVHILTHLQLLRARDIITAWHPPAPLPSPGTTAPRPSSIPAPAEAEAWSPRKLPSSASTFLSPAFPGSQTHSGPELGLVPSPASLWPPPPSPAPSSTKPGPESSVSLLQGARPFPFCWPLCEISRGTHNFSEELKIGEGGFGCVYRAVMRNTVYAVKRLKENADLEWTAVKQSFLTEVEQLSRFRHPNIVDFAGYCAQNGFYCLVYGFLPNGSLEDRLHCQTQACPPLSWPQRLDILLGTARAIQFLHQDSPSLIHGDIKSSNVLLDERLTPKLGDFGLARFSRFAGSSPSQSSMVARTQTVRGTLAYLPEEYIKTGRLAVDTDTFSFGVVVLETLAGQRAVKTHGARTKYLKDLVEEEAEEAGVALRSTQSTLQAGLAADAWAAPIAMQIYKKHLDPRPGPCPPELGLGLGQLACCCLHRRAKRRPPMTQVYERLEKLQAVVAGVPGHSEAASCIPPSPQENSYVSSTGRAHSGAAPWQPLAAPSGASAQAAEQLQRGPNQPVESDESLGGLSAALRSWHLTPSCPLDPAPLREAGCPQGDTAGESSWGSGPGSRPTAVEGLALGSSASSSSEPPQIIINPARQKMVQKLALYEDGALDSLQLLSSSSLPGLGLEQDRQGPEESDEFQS
Description: as §1, with “case, in order to investigate” for “case,”, “inhibition of the autophosphorylation activity of IRAK1, the IRAK1” for “IRAK4”, “His6-IRAK1 (5.1” for “His6-IRAK4 (7.3”, “1” for “the biotinylated substrate peptide STK substrate 1-biotin (Cisbio Bioassays, France) (300 nM), 10”

| Compound | IC50 (PDK1) [µM] | IC50 (IRAK-4) [µM] | IC50 (IRAK-1) [µM] |
| --- | --- | --- | --- |
| CC1CC(=O)NN=C1c1ccc2[nH]c(-c3cc(-c4cnn(CC(=O)N(C)C)c4)cnc3N)nc2c1 (stereo not shown) [Compound A25, 2-(4-{6-amino-5-[5-(4-methyl-6-oxo-1,4,5,6-tetrahydropyridazin-3-yl)-1H-benzimidazol-2-yl]pyridin-3-yl}pyrazol-1-yl)-N,N-dimethylacetamide] | 0.001 to 0.1 |  |  |
| COc1cc2[nH]c(-c3cc(-c4cnn(CC(=O)N5CCCCC5)c4)cnc3N)nc2cc1F [Compound A30, 2-{4-[6-amino-5-(5-fluoro-6-methoxy-1H-benzimidazol-2-yl)pyridin-3-yl]pyrazol-1-yl}-1-piperidin-1-ylethanone] |  | 0.1 to 10 | 0.001 to 0.1 |
| Nc1ncc(-c2cnn(C3CCNCC3)c2)cc1-c1nc2cc(S(N)(=O)=O)ccc2[nH]1 [Compound A62] |  | 0.1 to 10 | 0.1 to 10 |
| Nc1ccc(-c2cnc(N)c(-c3nc4ccccc4[nH]3)c2)cn1 [Compound A35] |  | 0.1 to 10 | 0.1 to 10 |
| Nc1ncc(-c2cnn(C3CCNCC3)c2)cc1-c1nc2ccc(F)cc2[nH]1 [Compound A50] |  | 0.001 to 0.1 | 0.1 to 10 |
| CCn1cc(-c2cnc(N)c(-c3nc4ccc(OC)cc4[nH]3)c2)cn1 [Compound A105, 5-(1-Ethyl-1H-pyrazol-4-yl)-3-(6-methoxy-1H-benzimidazol-2-yl)pyridin-2-ylamine] |  | 0.1 to 10 | 0.1 to 10 |
| COCCNC(=O)c1ccc(-c2cnc(N)c(-c3nc4ccc(OC)cc4[nH]3)c2)s1 [Compound A130, N-(2-methoxyethyl)-5-[6-amino-5-(6-methoxy-1H-benzimidazol-2-yl)pyridin-3-yl]thiophene-2-carboxamide] |  | 0.001 to 0.1 | 0.001 to 0.1 |
| COc1ccc2nc(-c3cc(-c4cnn(Cc5cccs5)c4)cnc3N)[nH]c2c1 [Compound A113, 3-(6-Methoxy-1H-benzimidazol-2-yl)-5-(1-thiophen-2-ylmethyl-1H-pyrazol-4-yl)pyridin-2-ylamine] |  | 0.1 to 10 | 0.001 to 0.1 |
| CC(O)(c1ccccc1)c1ccc2[nH]c(-c3cc(-c4cnn(CCN5CCOCC5)c4)cnc3N)nc2c1 (stereo not shown) [Compound A150, 1-(2-{2-Amino-5-[1-(2-morpholin-4-ylethyl)-1H-pyrazol-4-yl]pyridin-3-yl}-1H-benzimidazol-5-yl)-1-phenylethanol] | 0.1 to 10 |  |  |
| COc1ccc2nc(-c3cc(-c4cnn(CCCN(C)C)c4)cnc3N)[nH]c2c1 [Compound A96, 5-[1-(3-Dimethylaminopropyl)-1H-pyrazol-4-yl]-3-(6-methoxy-1H-benzimidazol-2-yl)pyridin-2-ylamine] |  | 0.1 to 10 | 0.1 to 10 |
| Nc1ncc(-c2cnn(C3CCNCC3)c2)cc1-c1nc2cc3[nH]c(=O)[nH]c3cc2[nH]1 [Compound A55] | 0.001 to 0.1 |  |  |
| CC1CC(=O)NN=C1c1ccc2[nH]c(-c3cc(-c4cnn(CC(=O)N5CCN(C)CC5)c4)cnc3N)nc2c1 (stereo not shown) [Compound A26, 6-[2-(2-Amino-5-{1-[2-(4-methylpiperazin-1-yl)-2-oxoethyl]-1H-pyrazol-4-yl}-pyridin-3-yl)-1H-benzimidazol-5-yl]-5-methyl-4,5-dihydro-2H-pyridazin-3-one] | 0.001 to 0.1 |  |  |
| COc1ccc2nc(-c3cc(-c4cnn(CCN(C)C)c4)cnc3N)[nH]c2c1 [Compound A94, 5-[1-(2-Dimethylaminoethyl)-1H-pyrazol-4-yl]-3-(6-methoxy-1H-benzimidazol-2-yl)pyridin-2-ylamine] |  | 0.1 to 10 | 0.1 to 10 |
| Cn1cc(-c2cnc(N)c(-c3nc4cc5cn[nH]c5cc4[nH]3)c2)cn1 [Compound A115, 3-(1,7-Dihydroimidazo[4,5-f]indazol-6-yl)-5-(1-methyl-1H-pyrazol-4-yl)pyridin-2-ylamine] |  | 0.1 to 10 | 0.1 to 10 |
| Nc1ncc(-c2ccncc2)cc1-c1nc2ccccc2[nH]1 [Compound A32] |  | 0.1 to 10 | 0.1 to 10 |
| COc1cc2nc(-c3cc(-c4cnn(C5CCNCC5)c4)cnc3N)[nH]c2cc1OC [Compound A66] |  | 0.1 to 10 | 0.1 to 10 |
| Cn1cc(-c2cnc(N)c(-c3nc4c(F)cc(F)cc4[nH]3)c2)cn1 [Compound A76] |  | > 10 | 0.1 to 10 |
| Nc1ncc(-c2cnn(C3CCNCC3)c2)cc1-c1nc2ccc(Cl)cc2[nH]1 [Compound A70] |  | 0.001 to 0.1 | 0.1 to 10 |
| Cn1cc(-c2cnc(N)c(-c3nc4ccccc4[nH]3)c2)cn1 [Compound A34] |  | 0.1 to 10 | 0.1 to 10 |
| Cc1cccc2nc(-c3cc(-c4cnn(CCN5CCOCC5)c4)cnc3N)[nH]c12 [Compound A48] |  | 0.1 to 10 | 0.1 to 10 |
| CC1CC(=O)NN=C1c1ccc2[nH]c(-c3cc(-c4cnn(C5CCNCC5)c4)cnc3N)nc2c1 (stereo not shown) [Compound A17, 6-{2-[2-amino-5-(1-piperidin-4-yl-1H-pyrazol-4-yl)-pyridin-3-yl]-1H-benzimidazol-5-yl}-5-methyl-4,5-dihydro-2H-pyridazin-3-one] | 0.001 to 0.1 |  |  |
| Cc1cccc2nc(-c3cc(-c4cnn(C)c4)cnc3N)[nH]c12 [Compound A42] |  | 0.1 to 10 | 0.1 to 10 |
| Cc1cc(Cl)cc2nc(-c3cc(-c4cnn(C5CCNCC5)c4)cnc3N)[nH]c12 [Compound A72] |  | 0.1 to 10 | 0.1 to 10 |
| Cn1cc(-c2cnc(N)c(-c3nc4ccc(CCN)cc4[nH]3)c2)cn1 [Compound A64] | 0.001 to 0.1 |  |  |
| Nc1ncc(-c2cnn(C3CCNCC3)c2)cc1-c1nc2ccccc2[nH]1 [Compound A114, 3-(1H-Benzimidazol-2-yl)-5-(1-piperidin-4-yl-1H-pyrazol-4-yl)pyridin-2-ylamine] |  | 0.001 to 0.1 | 0.1 to 10 |
| Cn1cc(-c2cnc(N)c(-c3nc4cc(CC(N)=O)ccc4[nH]3)c2)cn1 [Compound A120, 2-{2-[2-amino-5-(1-methyl-1H-pyrazol-4-yl)pyridin-3-yl]-1H-benzimidazol-5-yl}acetamide] | 0.001 to 0.1 |  |  |
| CC1CC(=O)NN=C1c1ccc2[nH]c(-c3cc(-c4cnn(CC(=O)O)c4)cnc3N)nc2c1 (stereo not shown) [Compound A24, (4-{6-amino-5-[5-(4-methyl-6-oxo-1,4,5,6-tetrahydropyridazin-3-yl)-1H-benzimidazol-2-yl]pyridin-3-yl}pyrazol-1-yl)acetic acid] | 0.001 to 0.1 |  |  |
